Patent US10597388B2, “Pyridazinone herbicides” (FMC CORPORATION, priority 2014, dated 2020)

How the values were obtained:
Assay in all cases: Test D controlled growth environment herbicide test, pre- and postemergence
Format in all cases: in vivo
[1] = system: foxtail, green (green foxtail, Setaria viridis)
Description: (§1) Seeds of plant species selected from bluegrass (annual bluegrass, Poa annua), blackgrass (Alopecurus myosuroides), Canada thistle (Cirsium arvense), canarygrass (Phalaris minor), chickweed (common chickweed, Stellaria media), geranium, cutleaf (cutleaf geranium, Geranium dissectum), galium (catchweed bedstraw, Galium aparine), bromegrass, downy (downy bromegrass, Bromus tectorum), field poppy (Papaver rhoeas), field violet (Viola arvensis), foxtail, green (green foxtail, Setaria viridis), deadnettle (henbit deadnettle, Lamium amplexicaule), ryegrass, Italian (Italian ryegrass, Lolium multiflorum), kochia (Kochia scoparia), lambsquarters (Chenopodium album), oilseed rape (Brassica napus), pigweed (Amaranthus retroflexus), chamomile (scentless chamomile, Matricaria inodora), Russian thistle (Salsola kali), speedwell (bird's-eye speedwell, Veronica persica), barley, spring (spring barley, Hordeum vulgare), wheat, spring (spring wheat, Triticum aestivum), buckwheat, wild (wild buckwheat, Polygonum convolvulus), mustard, wild (wild mustard, Sinapis arvensis), oat, wild (wild oat, Avena fatua), radish, wild (wild radish, Raphanus raphanistrum), windgrass (Apera spica-venti), barley, winter (winter barley, Hordeum vulgare), and wheat, winter (winter wheat, Triticum aestivum) were planted into a silt loam soil and treated preemergence with test chemicals formulated in a non-phytotoxic solvent mixture which included a surfactant.
(§2) At the same time, these species were planted in pots containing Redi-Earth® planting medium (Scotts Company, 14111 Scottslawn Road, Marysville, Ohio 43041) comprising spaghnum peat moss, vermiculite, wetting agent and starter nutrients and treated with postemergence applications of the test chemicals formulated in the same manner. Plants ranged in height from 2 to 18 cm (1- to 4-leaf stage). Treated plants and controls were maintained in a controlled growth environment for 14 to 21 d after which time all species were compared to controls and visually evaluated. Plant response ratings, summarized in Table D, are based on a scale of 0 to 100 where 0 is no effect and 100 is complete control. A dash (-) response means no test result.

[2] = system: windgrass (Apera spica-venti)
Description: as §1, §2

[3] = system: barley, winter (winter barley, Hordeum vulgare)
Description: as §1, §2

[4] = system: chickweed (common chickweed, Stellaria media)
Description: as §1, §2

[5] = system: mustard, wild (wild mustard, Sinapis arvensis)
Description: as §1, §2

[6] = system: blackgrass (Alopecurus myosuroides)
Description: as §1, §2

[7] = system: oat, wild (wild oat, Avena fatua)
Description: as §1, §2

[8] = system: chamomile (scentless chamomile, Matricaria inodora)
Description: as §1, §2

[9] = system: lambsquarters (Chenopodium album)
Description: as §1, §2

[10] = system: wheat, winter (winter wheat, Triticum aestivum)
Description: as §1, §2

[11] = system: field poppy (Papaver rhoeas)
Description: as §1, §2

[12] = system: pigweed (Amaranthus retroflexus)
Description: as §1, §2

[13] = system: wheat, spring (spring wheat, Triticum aestivum)
Description: as §1, §2

[14] = system: bromegrass, downy (downy bromegrass, Bromus tectorum)
Description: as §1, §2

[15] = Postemergence, 31 g ai/ha, scale 0 to 100 (0 no effect, 100 complete control)
[16] = Postemergence, 125 g ai/ha, visual rating on scale 0 (no effect) to 100 (complete control), 14 to 21 d
[17] = Postemergence, 250 g ai/ha, scale 0 to 100 (0 no effect, 100 complete control)
[18] = Preemergence, 62 g ai/ha, scale 0 to 100 (0 no effect, 100 complete control)
[19] = Preemergence, 125 g ai/ha, scale 0 to 100 (0 no effect, 100 complete control)
[20] = Preemergence, 250 g ai/ha, scale 0 to 100, 0 no effect, 100 complete control
[21] = postemergence, 62 g ai/ha, scale 0 to 100, 0 no effect, 100 complete control

Cc1nn(C)c(=O)c(-c2c(C)sc3c(C)cc(Cl)cc23)c1O [Compound 35]
45: Plant response rating, Foxtail, Green [1, 18]
30: Blackgrass plant response rating [6, 15] | Plant response rating, Wheat, Spring [13, 17] | Plant response rating, Wheat, Spring [13, 20] | Plant response rating, Bromegrass, Downy [14, 17] | Plant response rating, Bromegrass, Downy [14, 18]
25: Windgrass plant response rating [2, 15] | Plant response rating (scale of 0 to 100), Windgrass ([2]; Preemergence, 31 g ai/ha) | Plant response rating (scale of 0 to 100), Pigweed ([12]; Preemergence, 31 g ai/ha) | Plant response rating, Wheat, Spring [13, 16] | Plant response rating, Bromegrass, Downy [14, 16] | Plant response rating, Bromegrass, Downy [14, 21]
65: Plant response rating, Foxtail, Green [1, 19] | Plant response rating, Windgrass [2, 21] | Plant response rating, Blackgrass [6, 21] | Plant response rating, Bromegrass, Downy [14, 20]
10: Wheat, Winter plant response rating [10, 15] | Plant response rating, Wheat, Winter [10, 20]
15: Plant response rating, Barley, Winter [3, 17] | Plant response rating, Wheat, Winter [10, 16] | Plant response rating, Wheat, Winter [10, 21] | Wheat, Spring plant response rating [13, 15]
95: Plant response rating, Foxtail, Green [1, 16] | Plant response rating, Foxtail, Green [1, 17] | Plant response rating, Windgrass [2, 18] | Plant response rating (scale of 0 to 100), Chickweed ([4]; Preemergence, 31 g ai/ha) | Plant response rating, Chickweed [4, 18] | Blackgrass plant response rating [6, 20] | Plant response rating, Oat, Wild [7, 20] | Plant response rating, Pigweed [12, 18]
55: Plant response rating, Bromegrass, Downy [14, 19]
85: Plant response rating, Windgrass [2, 17] | Plant response rating (scale of 0 to 100), Mustard, Wild ([5]; Preemergence, 31 g ai/ha) | Plant response rating, Blackgrass [6, 17] | Plant response rating, Blackgrass [6, 18] | Plant response rating, Blackgrass [6, 19] | Oat, Wild plant response rating [7, 15] | Plant response rating, Oat, Wild [7, 16] | Plant response rating, Oat, Wild [7, 19] | Plant response rating, Field Poppy [11, 18] | Plant response rating, Pigweed [12, 16]
90: Plant response rating, Foxtail, Green [1, 21] | Chickweed plant response rating [4, 15] | Plant response rating, Oat, Wild [7, 21]
98: Mustard, Wild plant response rating [5, 15] | Plant response rating, Oat, Wild [7, 17] | Plant response rating, Lambsquarters [9, 16] | Plant response rating, Lambsquarters [9, 17] | Plant response rating, Lambsquarters [9, 18] | Plant response rating, Pigweed [12, 17]
80: Plant response rating, Oat, Wild [7, 18] | Pigweed plant response rating [12, 15] | Plant response rating, Pigweed [12, 21]
75: Foxtail, Green plant response rating [1, 15] | Plant response rating, Blackgrass [6, 16] | Plant response rating (scale of 0 to 100), Blackgrass ([6]; Preemergence, 31 g ai/ha) | Plant response rating (scale of 0 to 100), Oat, Wild ([7]; Preemergence, 31 g ai/ha) | Lambsquarters plant response rating [9, 15] | Plant response rating (scale of 0 to 100), Field Poppy ([11]; Preemergence, 31 g ai/ha)
20: Plant response rating, Wheat, Winter [10, 17] | Plant response rating, Wheat, Spring [13, 21] | Plant response rating (scale of 0 to 100), Bromegrass, Downy ([14]; Preemergence, 31 g ai/ha)
0: Plant response rating, Barley, Winter [3, 15] | Plant response rating, Barley, Winter [3, 16] | Plant response rating (scale of 0 to 100), Barley, Winter ([3]; Preemergence, 31 g ai/ha) | Plant response rating, Barley, Winter [3, 18] | Plant response rating, Barley, Winter [3, 19] | Barley, Winter plant response rating [3, 20] | Plant response rating, Barley, Winter [3, 21] | Plant response rating (scale of 0 to 100), Wheat, Winter ([10]; Preemergence, 31 g ai/ha) | Plant response rating, Wheat, Winter [10, 18] | Plant response rating, Wheat, Winter [10, 19] | Plant response rating (scale of 0 to 100), Wheat, Spring ([13]; Preemergence, 31 g ai/ha) | Plant response rating, Wheat, Spring [13, 18]
70: Plant response rating, Windgrass [2, 16] | Plant response rating (scale of 0 to 100), Lambsquarters ([9]; Preemergence, 31 g ai/ha)
5: Plant response rating, Wheat, Spring [13, 19] | Bromegrass, Downy plant response rating [14, 15]
100: Plant response rating, Foxtail, Green [1, 20] | Plant response rating, Windgrass [2, 19] | Plant response rating, Windgrass [2, 20] | Plant response rating, Chickweed [4, 16] | Plant response rating, Chickweed [4, 17] | Plant response rating, Chickweed [4, 19] | Plant response rating, Chickweed [4, 20] | Plant response rating, Chickweed [4, 21] | Plant response rating, Mustard, Wild [5, 16] | Plant response rating, Mustard, Wild [5, 17] | Plant response rating, Mustard, Wild [5, 18] | Plant response rating, Mustard, Wild [5, 19] | Plant response rating, Mustard, Wild [5, 20] | Plant response rating, Mustard, Wild [5, 21] | Chamomile plant response rating [8, 15] | Plant response rating, Chamomile [8, 16] | Plant response rating, Chamomile [8, 17] | Plant response rating (scale of 0 to 100), Chamomile ([8]; Preemergence, 31 g ai/ha) | Plant response rating, Chamomile [8, 18] | Plant response rating, Chamomile [8, 19] | Plant response rating, Chamomile [8, 20] | Plant response rating, Chamomile [8, 21] | Plant response rating, Lambsquarters [9, 19] | Plant response rating, Lambsquarters [9, 20] | Plant response rating, Lambsquarters [9, 21] | Field Poppy plant response rating [11, 15] | Plant response rating, Field Poppy [11, 16] | Plant response rating, Field Poppy [11, 17] | Plant response rating, Field Poppy [11, 19] | Plant response rating, Field Poppy [11, 20] | Plant response rating, Field Poppy [11, 21] | Plant response rating, Pigweed [12, 19] | Plant response rating, Pigweed [12, 20]
50: Plant response rating (scale of 0 to 100), Foxtail, Green ([1]; Preemergence, 31 g ai/ha)
